Data as given in US20040029773A1, “Use of 1-ebio in the treatment of bipolar disorders” (priority 2000, published 2004).

Tests used:
[1] = test system: amphetamine/chlordiazepoxide-induced hyperactivity in mice; conditions: previous validation studies (literature); cited from earlier work
[2] = test system: amphetamine/chlordiazepoxide-induced hyperactivity in mice; test: amphetamine/chlordiazepoxide-induced hyperactivity, rodent model of mania (locomotor activity); conditions: 150 mg/kg i.p., data not shown

CCCC(CCC)C(=O)[O-].[Na+] [sodium valproate]
behaviour induced by amphetamine plus chlordiazepoxide [1]: can be ameliorated | amphetamine/chlordiazepoxide-induced hyperactivity [2]: can be prevented
